Source: patent US12157730B2, “Heteroaryl derivative, method for producing same, and pharmaceutical composition comprising same as effective component” (VORONOI INC., priority 2019, dated 2024)

Tests used:
[1] = system: scanMAX kinase panel (EGFR mutant, ERBB2, ERBB4); test: DiscoverX (eurofin) KINOMEscan (scanMAX platform) kinase profiling; format: binding; conditions: for suppression activity against the EGFR mutant and ERBB2 and ERBB4: KINOMEscan scanMAX kinase profiling
From the text: It was confirmed that the above example compounds had high selectivity against EGFR series genes. Accordingly, these can be useful in the treating of cancers wherein this kinase is expressed. In particular, as they have substantially outstanding lung cancer cell line proliferation suppression, they can be useful in the treatment of lung cancer, breast cancer, and brain cancer.

Ba/F3 cell naive = test: Ba/F3 cell proliferation suppression, naive; format: cell-based; conditions: Mus musculus, BaF3; 72 hours after treatment, CellTiter-Glo
Method in brief: (§1)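 Seed 3000–5000 cells/well; after 24 h add compound (12 conc., 0.3 nM–50 um final); incubate 72 h; add CellTiter-Glo, 10 min room temperature; read luminescence; GI50 from % growth vs control, triplicate.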

PC9GR = test: Lung cancer cell proliferation suppression, PC9GR; format: cell-based; conditions: 72 hours after treatment, CellTiter-Glo
Method in brief: as §1

[2] = biological target: T1, Ba/F3 cell EGFR Exon20 ins NPH (Homo sapiens, UniProt P00533, INS773NPH); test: Ba/F3 cell proliferation suppression, EGFR Exon20 ins NPH; format: cell-based; conditions: for GI50: 72 hours after treatment, CellTiter-Glo; for Ba/F3 (NPH) Activity: GI50 class, Ba/F3 cell line with NPH inserted at Exon20 of EGFR, 72 hours
T1 construct: expressed in transfected cells; host or cells: Ba/F3
Method in brief: as §1

[3] = biological target: T2, Ba/F3 cell EGFR Exon20 ins FQEA (Homo sapiens, UniProt P00533, INS763FQEA); test: Ba/F3 cell proliferation suppression, EGFR Exon20 ins FQEA; format: cell-based; conditions: 72 hours after treatment, CellTiter-Glo
T2 construct: expressed in transfected cells; host or cells: Ba/F3
Method in brief: as §1

[4] = biological target: T3, Ba/F3 cell EGFR Exon20 ins SVD (Homo sapiens, UniProt P00533, INS770SVD); test: Ba/F3 cell proliferation suppression, EGFR Exon20 ins SVD; format: cell-based; conditions: 72 hours after treatment, CellTiter-Glo
T3 construct: expressed in transfected cells; host or cells: Ba/F3
Method in brief: as §1

[5] = Cancer cell proliferation suppression, A549; format: cell-based; conditions: A459; 72 hours after treatment, CellTiter-Glo
Experimental: (§2) The following experiment was carried out to evaluate the suppression activity of the compounds according to the present invention against proliferation of Ba/F3 and lung cancer cells which express EGFR mutations.
(§3) Of the cancer cell lines expressing the EGFR gene, A549 was cultured after adding 10% FBS (HyClone) to DMEM (Invitrogen), and RPMI-1640 (Invitrogen) with 10% FBS was used for the other cancer cells. For the Ba/F3 cells, RPMI-1640 with 10% FBS and 5 ng/ml IL-3 (R&D Systems) was used. The transduced Ba/F3 cells were cultured by adding 1 ug/ml puromycin (Invitrogen) to the same medium.
(§4) 24 hours before treatment with the compounds, 3000 to 5000 cells were distributed into each well of a white clear bottom 96 well plate (Corning). The compounds were diluted in dimethylsulfoxide (dilution ratio 3:1; 12 concentrations total) and injected 0.5 ul each for a final concentration of 0.3 nM to 50 um. As for measurement of live cells, 72 hours after treatment with the compounds, a CellTiter-Glo luminescent cell-viability reagent (Promega) was used to store the cells at room temperature for 10 minutes, followed by measurement of luminescence using a reader (SynergyNeo, Biotek). Each test was repeated three times.
(§5) The result was calculated as a cell growth ratio (%) compared to a control. The program GraphPad Prism version 5.0 was used to draw the graphs and calculate the GI50 values.

[6] = biological target: T4, Ba/F3 cell HER2 Exon20 ins YVMA (Homo sapiens, UniProt P04626, INS775YVMA); test: Ba/F3 cell proliferation suppression, HER2 Exon20 ins YVMA; format: cell-based; conditions: 72 hours after treatment, CellTiter-Glo
T4 construct: expressed in transfected cells; host or cells: Ba/F3
Method in brief: as §1

[7] = system: Ba/F3 cell EGFR Exon20 ins H; test: Ba/F3 cell proliferation suppression, EGFR Exon20 ins H; format: cell-based; conditions: 72 hours after treatment, CellTiter-Glo
Experimental: as §2, §3, §4, §5

PC9 = test: Lung cancer cell proliferation suppression, PC9; format: cell-based; conditions: Homo sapiens, PC-9; 72 hours after treatment, CellTiter-Glo
Method in brief: as §1

[8] = biological target: T5, Ba/F3 cell EGFR L858R/T790M (Homo sapiens, UniProt P00533, L858R/T790M); test: Ba/F3 cell proliferation suppression, EGFR L858R/T790M; format: cell-based; conditions: 72 hours after treatment, CellTiter-Glo
T5 construct: expressed in transfected cells; host or cells: Ba/F3
Method in brief: as §1

[9] = system: Ba/F3 cell EGFR Del19/T790M; test: Ba/F3 cell proliferation suppression, EGFR Del19/T790M; format: cell-based; conditions: 72 hours after treatment, CellTiter-Glo
Method in brief: as §1

[10] = biological target: T6, Ba/F3 cell EGFR Exon20 ins ASV (Homo sapiens, UniProt P00533, INS769ASV); test: Ba/F3 cell proliferation suppression, EGFR Exon20 ins ASV; format: cell-based; conditions: 72 hours after treatment, CellTiter-Glo
T6 construct: expressed in transfected cells; host or cells: Ba/F3
Method in brief: as §1

H1975 = test: Lung cancer cell proliferation suppression, H1975; format: cell-based; conditions: Homo sapiens, NCI-H1975; 72 hours after treatment, CellTiter-Glo
Method in brief: as §1

Ba/F3 cell EGFR L858R = biological target: T7, Ba/F3 cell EGFR L858R (Homo sapiens, UniProt P00533, L858R); test: Ba/F3 cell proliferation suppression, EGFR L858R; format: cell-based; conditions: 72 hours after treatment, CellTiter-Glo
T7 construct: expressed in transfected cells; host or cells: Ba/F3
Method in brief: as §1

T4 sequence (P04626 with tags, fused parts or gaps INS775YVMA): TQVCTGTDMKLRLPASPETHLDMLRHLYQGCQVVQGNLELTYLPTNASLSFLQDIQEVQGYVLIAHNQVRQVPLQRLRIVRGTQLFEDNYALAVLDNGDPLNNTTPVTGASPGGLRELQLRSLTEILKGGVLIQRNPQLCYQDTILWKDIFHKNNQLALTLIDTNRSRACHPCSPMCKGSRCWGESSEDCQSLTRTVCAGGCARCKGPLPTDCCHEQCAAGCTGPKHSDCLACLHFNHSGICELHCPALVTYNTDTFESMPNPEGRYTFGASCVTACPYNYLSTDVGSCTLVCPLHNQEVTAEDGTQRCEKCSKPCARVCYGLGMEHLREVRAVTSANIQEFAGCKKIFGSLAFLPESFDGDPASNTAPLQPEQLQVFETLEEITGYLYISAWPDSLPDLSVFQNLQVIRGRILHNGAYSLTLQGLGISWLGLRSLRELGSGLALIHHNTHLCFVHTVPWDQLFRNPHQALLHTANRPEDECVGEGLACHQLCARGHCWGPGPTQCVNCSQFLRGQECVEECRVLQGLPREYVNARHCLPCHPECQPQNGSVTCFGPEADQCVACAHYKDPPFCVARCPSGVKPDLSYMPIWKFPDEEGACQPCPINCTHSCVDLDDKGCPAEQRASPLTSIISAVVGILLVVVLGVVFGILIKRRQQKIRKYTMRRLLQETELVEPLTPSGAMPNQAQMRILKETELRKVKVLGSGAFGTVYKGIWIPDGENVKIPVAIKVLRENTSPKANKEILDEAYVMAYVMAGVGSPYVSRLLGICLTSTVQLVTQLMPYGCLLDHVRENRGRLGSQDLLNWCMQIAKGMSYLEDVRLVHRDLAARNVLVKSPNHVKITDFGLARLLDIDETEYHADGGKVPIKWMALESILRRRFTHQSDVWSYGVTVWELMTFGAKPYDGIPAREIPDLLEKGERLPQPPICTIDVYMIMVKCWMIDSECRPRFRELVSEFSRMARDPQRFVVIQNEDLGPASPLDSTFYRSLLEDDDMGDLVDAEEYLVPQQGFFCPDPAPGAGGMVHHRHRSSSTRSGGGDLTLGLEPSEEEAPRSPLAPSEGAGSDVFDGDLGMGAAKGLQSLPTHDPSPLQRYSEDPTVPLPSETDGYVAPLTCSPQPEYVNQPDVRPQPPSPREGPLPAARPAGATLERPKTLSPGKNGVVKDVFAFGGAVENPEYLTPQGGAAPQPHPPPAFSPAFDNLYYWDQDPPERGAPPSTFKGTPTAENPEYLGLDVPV

| Compound | % inhibition of scanMAX Kinase profiling ([1]; EGFR(E746-A750del)) [%] | % inhibition of scanMAX Kinase profiling ([1]; EGFR(G719C)) [%] | % inhibition of scanMAX Kinase profiling ([1]; EGFR(G719S)) [%] | % inhibition of scanMAX Kinase profiling ([1]; EGFR(L747-E749del, A750P)) [%] | % inhibition of scanMAX Kinase profiling ([1]; EGFR(L747-T751del.Sins)) [%] | GI50 (Ba/F3 cell naive) [µM] | GI50 (PC9GR) [nM] | GI50 [2] [µM] | Ba/F3 (NPH) Activity [2] | GI50 [3] [µM] | GI50 [4] [µM] | GI50 [5] [nM] | GI50 [6] [µM] | GI50 [7] [µM] | GI50 (PC9) [nM] | GI50 [8] [µM] | GI50 [9] [µM] | GI50 [10] [µM] | GI50 (H1975) [nM] | GI50 (Ba/F3 cell EGFR L858R) [µM] | further results |
| --- | --- | --- | --- | --- | --- | --- | --- | --- | --- | --- | --- | --- | --- | --- | --- | --- | --- | --- | --- | --- | --- |
| C=CC(=O)Nc1cc(Nc2cc(N3OCC[C@@H]3c3ccccc3)ncn2)c(OC)cc1N1CCN(C)CC1 [Example 6, N-(4-methoxy-2-(4-methylpiperazine-1-yl)-5-((6-((R)-3-phenylisoxazolidine-2-yl)pyrimidine-4-yl)amino)phenyl) acrylamide] | 100 | 100 | 100 | 100 | 100 | ≥ 5 | 32 | < 0.05 | A (GI50 < 50 nM) | < 0.05 | < 0.05 | > 15000 | < 0.05 | < 0.05 | 1 | < 0.05 | < 0.05 | < 0.05 | 60 | < 0.05 | % inhibition of scanMAX Kinase profiling ([1]; EGFR(L858R)): 100%; % inhibition of scanMAX Kinase profiling ([1]; EGFR(L858R.T790M)): 85%; % inhibition of scanMAX Kinase profiling ([1]; EGFR(L861q)): 100%; % inhibition of scanMAX Kinase profiling ([1]; EGFR(S752-I759del)): 96%; % inhibition of scanMAX Kinase profiling ([1]; EGFR(T790M)): 100%; % inhibition of scanMAX Kinase profiling ([1]; ERBB2): 100%; % inhibition of scanMAX Kinase profiling ([1]; ERBB4): 100%; suppression activity against the EGFR mutant and ERBB2 and ERBB4 [1]: high suppression activity |
| C=CC(=O)Nc1cc(Nc2cc(N3OCC[C@@H]3c3ccccc3)ncn2)c(OC)cc1N(C)CCN(C)C [Example 4] | 100 | 100 | 100 | 97 | 100 | ≥ 5 | 20 | < 0.05 | A (GI50 < 50 nM) | < 0.05 | < 0.05 | > 15000 | < 0.05 | < 0.05 | 1 | < 0.05 | < 0.05 | < 0.05 | 28 | < 0.05 | % inhibition of scanMAX Kinase profiling ([1]; EGFR(L858R)): 100%; % inhibition of scanMAX Kinase profiling ([1]; EGFR(L858R.T790M)): 96%; % inhibition of scanMAX Kinase profiling ([1]; EGFR(L861q)): 100%; % inhibition of scanMAX Kinase profiling ([1]; EGFR(S752-I759del)): 100%; % inhibition of scanMAX Kinase profiling ([1]; EGFR(T790M)): 99%; % inhibition of scanMAX Kinase profiling ([1]; ERBB2): 100%; % inhibition of scanMAX Kinase profiling ([1]; ERBB4): 100%; suppression activity against the EGFR mutant and ERBB2 and ERBB4 [1]: high suppression activity |
| C=CC(=O)Nc1cc(Nc2cc(N3OCC[C@@H]3c3ccccc3)ncn2)c(OC)cc1N1CCN(C2CCN(C)CC2)CC1 [Example 10] | – | – | – | – | – | ≥ 5 | 10 | < 0.05 | A (GI50 < 50 nM) | < 0.05 | < 0.05 | > 15000 | < 0.05 | < 0.05 | 14 | < 0.05 | < 0.05 | < 0.05 | 13 | < 0.05 | – |
| C=CC(=O)Nc1cc(Nc2cc(N3OCC[C@@H]3c3ccccc3)ncn2)c(OC)cc1N1CCC(N2CCN(C)CC2)CC1 [Example 9] | 100 | 100 | 100 | 100 | 100 | ≥ 5 | 4 | < 0.05 | A (GI50 < 50 nM) | < 0.05 | < 0.05 | > 15000 | < 0.05 | < 0.05 | 1 | < 0.05 | < 0.05 | < 0.05 | 6 | < 0.05 | % inhibition of scanMAX Kinase profiling ([1]; EGFR(L858R)): 100%; % inhibition of scanMAX Kinase profiling ([1]; EGFR(L858R.T790M)): 96%; % inhibition of scanMAX Kinase profiling ([1]; EGFR(L861q)): 100%; % inhibition of scanMAX Kinase profiling ([1]; EGFR(S752-I759del)): 100%; % inhibition of scanMAX Kinase profiling ([1]; EGFR(T790M)): 99%; % inhibition of scanMAX Kinase profiling ([1]; ERBB2): 100%; % inhibition of scanMAX Kinase profiling ([1]; ERBB4): 100%; suppression activity against the EGFR mutant and ERBB2 and ERBB4 [1]: high suppression activity |
| C=CC(=O)Nc1cc(Nc2cc(N3OCC[C@@H]3c3ccccc3)ncn2)c(OC)cc1N1CCN(CC)CC1 [Example 15, N-(2-(4-ethylpiperazine-1-yl)-4-methoxy-5-((6-((R)-phenylisoxazolidine-2-yl)pyrimidine-4-yl)amino)phenyl) acrylamide] | – | – | – | – | – | ≥ 5 | 6 | < 0.05 | A (GI50 < 50 nM) | < 0.05 | < 0.05 | > 15000 | < 0.05 | < 0.05 | 7 | < 0.05 | < 0.05 | < 0.05 | 13 | < 0.05 | – |
